# Source: US20060263340A1, “Treating gastrointestinal diseases with modulators of retinoic acid” (priority 2005, published 2006)
# Assays:
# B cells = test: In vivo homing of B cells activated with anti-IgM antibody in the presence or absence of retinoic acid; parameters: species or system mouse
# Procedure: FIG. 16 illustrates the effect of retinoic acid (RA) in the homing potential of B cells activated with an anti IgM antibody. Mouse spleen B cells are activated with an anti-IgM antibody, either with or without RA, and in the presence of non-intestinal dendritic cells (D1-DC) to improve the effector B cell viability. After 4 days in culture, naïve, B220^+ and B220^Neg (plasmablasts) effector B cells are assayed for (A) α4β7 (MFI: mean fluorescence intensity). (B) CCR9, and (C-D) migration of B cells activated in the presence or the absence of RA. […] In addition, most of the cells localizing in the small bowel mucosa are B220^Low/Neg (plasmablasts). (D) Bar graphs showing the mean±SE of 2 independent experiments. The homing indices (HI) indicate how much more (or less) B cells activated in the presence of RA migrate with respect to those activated without RA in a given tissue (HI=1 means no difference). […]
# Dendritic cells treated with retinoic acid (RA) as described in FIGS. 3-6, or gut derived DC (e.g. mobilized from Peyer's patches or mesenteric lymph nodes), or RA itself (see FIG. 15) can be used to activate naive or effector/memory T and/or B cells. […] After 4-5 days, the resulting effector T and/or B cells are analyzed for their expression of gut or skin homing molecules and migratory behavior (see FIG. 16).
# T cells = test: In vivo migration of T cells activated with D1-DC pretreated with RA; conditions: T cells activated with D1-DC pretreated with RA for 3 days, injected into mice; average of two independent experiments (FIG. 19B)
structure (smiles),measurement,setting,value
"CC1=C(/C=C/C(C)=C/C=C/C(C)=C/C(=O)O)C(C)(C)CCC1 [RA, retinoic acid]",migration of B cells into the small bowel lamina propria as compared to those activated without RA (homing index),B cells; average of 2 independent experiments (FIG. 16D),more than 10 times
same,localization of B cells in the small bowel lamina propria as compared to B cells activated without RA,"B cells; mouse spleen B cells activated with anti-IgM with RA, in presence of D1-DC, representative homing experiment (FIG. 16C)",24 times
same,migration of T cells to the intestinal mucosa as compared to those activated with control D1-DC,T cells,200 times
